Test results: US9802974B2, “Synthesis of diverse glycosylphosphatidylinositol glycans from Toxoplasma gondii and their application as vaccines and diagnostics” (Max-Planck-Gesellschaft zur Förderung der Wissenschaften …, priority 2012, dated 2017)
Entries after “also recorded” stand apart in the source; their conditions may differ.

System: serum antibodies raised against the conjugate consisting of compound 3 covalently linked to CRM197
Assay: Carbohydrate microarray analysis of serum from Balb/c mice immunized with the conjugate of compound 3 and CRM197
Type: binding
Conditions: pooled serum of Balb/c mice immunized with compound 3-CRM197 conjugate; compounds printed at 1 mM; FIG. 3
Protocol: FIG. 3: left side: Analysis of pooled serum that was obtained 4 weeks after 1st immunization of Balb/c mice with a conjugate consisting of CRM197 covalently linked to compound 3; right side: Printing pattern: all compounds were printed in a 3×3 pattern and in a concentration of 1 mM; left, upper corner: compound 5; left lower corner: compound 3; right, upper corner: compound 4; right lower corner: (α-D-Mannopyranosyl)-(1→2)-(α-D-mannopyranosyl)-(1→2)-(α-D-mannopyranosyl)-(1→6)-(α-D-mannopyranosyl)-(1→4)-(2-amino-2-deoxy-α-D-glucopyranosyl)-(1→6)-1-O-(6-thiohexyl phosphono)-D-myo-inositol (Chem. Eur. J. 2005, 11, 2493).
Three female BALB/c mice were immunized s.c. with 35 μg conjugate, prepared as described in example 11a, in Freund's complete adjuvant. […] After the second immunization, serum was collected and the antibody titer (total IgG) was determined by microarray six weeks after the first immunization.

Row | Compound | binding of serum antibodies to the glycan printed on the microarray
1 | 6-O-(aminoethyl phosphono)-α-D-mannopyranosyl-(1→2)-α-D-mannopyranosyl-(1→6)-4-O-(α-D-glucopyranosyl-(1→4)-2-deoxy-2-acetamido-β-D-galactopyranosyl)-α-D-manno-pyranosyl-(1→4)-2-amino-2-deoxy-α-D-glucopyranosyl-(1→6)-1-O-(thiohexyl phosphono)-D-myo-inositol [compound 4] | not
2 | CC(=O)NC1C(O)[C@@H](O)C(CO)O[C@H]1O[C@@H]1C(CO[C@H]2OC(CO)[C@@H](O)C(O)C2O[C@H]2OC(COP(=O)(O)OCCN)[C@@H](O)C(O)C2O)O[C@H](O[C@@H]2C(CO)O[C@H](O[C@@H]3C(O)C(O)[C@@H](O)C(O)C3OP(=O)(O)OCCCCCCS)C(N)C2O)C(O)C1O (stereo partly drawn) [compound 3, 6-O-(aminoethylphosphono)-α-D-mannopyranosyl-(1→2)-α-D-mannopyranosyl-(1→6)-4-O-(2-deoxy-2-acetamido-β-D-galactopyranosyl)-α-D-mannopyranosyl-(1→4)-2-amino-2-deoxy-α-D-glucopyranosyl-(1→6)-1-O-(thiohexylphosphono)-D-myo-inositol] | specifically evoke a binding; also recorded: bound
3 | N[C@H]1[C@@H](O[C@@H]2[C@@H](O)[C@H](O)[C@@H](O)[C@@H](O)[C@H]2OP(=O)(O)OCCCCCCS)O[C@H](CO)[C@@H](O[C@H]2O[C@H](CO[C@H]3O[C@H](CO)[C@@H](O)[C@H](O)[C@@H]3O[C@H]3O[C@H](CO)[C@@H](O)[C@H](O)[C@@H]3O[C@H]3O[C@H](CO)[C@@H](O)[C@H](O)[C@@H]3O)[C@@H](O)[C@H](O)[C@@H]2O)[C@@H]1O [(α-D-Mannopyranosyl)-(1→2)-(α-D-mannopyranosyl)-(1→2)-(α-D-mannopyranosyl)-(1→6)-(α-D-mannopyranosyl)-(1→4)-(2-amino-2-deoxy-α-D-glucopyranosyl)-(1→6)-1-O-(6-thiohexylphosphono)-D-myo-inositol, reference compound] | not
4 | CC(=O)NC1C(O)[C@@H](O)C(CO)O[C@H]1O[C@@H]1C(CO[C@H]2OC(CO)[C@@H](O)C(O)C2O[C@H]2OC(COP(=O)(O)OCCN)[C@@H](O)C(O)C2O)O[C@H](O[C@@H]2C(CO)O[C@H](O[C@@H]3C(O)C(O)[C@@H](O)C(O)C3OP(=O)(O)OCCCCCCS)C(N)C2O)C(OP(=O)(O)OCCN)C1O (stereo partly drawn) [compound 5, 6-O-(aminoethylphosphono)-α-D-mannopyranosyl-(1→2)-α-D-mannopyranosyl-(1→6)-2-O-(aminoethylphosphono)-4-O-(2-deoxy-2-acetamido-β-D-galactopyranosyl)-α-D-mannopyranosyl-(1→4)-2-amino-2-deoxy-α-D-glucopyranosyl-(1→6)-1-O-(thiohexylphosphono)-D-myo-inositol] | not and did not show cross reactivity
